Test results as given in patent US5527940A, “Methanediphosphonate derivative, its manufacturing process and its pharmaceutical applications” (Toray Industries, Inc., priority 1991, dated 1996).

Legend:
[1] = tested on: IL-1 production by J774-1 mouse macrophage cells; experiment: Action on IL-1 Production by Strain J774-1 Mouse Macrophage Cells (LPS stimulated); type: cell-based; conditions: 100 μM compound, LPS 1 μg/ml, 24 hours, read-out: IL-1 Production Inhibition Rate with respect to Control Group
Description: It is also known that these cells produce IL-1 when stimulated with LPS. The inhibitory action on IL-1 production of compounds of the present invention was measured according to the following procedure using this cell line.
The J774-1 cells were cultured in RPMI-1640 medium containing 10% fetal bovine serum and 50 μM 2-mercaptoethanol followed by adjusting the number of cells to 2×10^5 cells/ml. 1 ml aliquots of this cell suspension were then placed in the wells of a 24 well plate and cultured for 30 minutes. Following culturing, LPS was added to a final concentration of 1 μg/ml. At the same time, compounds obtained in Examples were dissolved in sterilized distilled water and added at a concentration of 100 μM. […]
The samples obtained above were serially diluted by a factor of 2 in a 96 well multiplate at a capacity of 50 μl. […] The thymus cells were then cultured for 72 hours and IL-1 activity was determined from the growth rate of the cells. […] Using the absorbance of the pigment produced by this reduction at 570 nm as the index, the dilution factor of the sample when growth of thymus cells is induced by 50% was calculated in terms of the number of units of that sample by taking the case of induction of maximum growth of T cells by human gene recombinant IL-1 to be 100% growth, and growth in the case of not adding IL-1 to be 0%. […]

[2] = tested on: osteoclasts (mouse bone cells), resorption pit formation; experiment: Bone resorption pit formation by mouse bone cells (osteoclasts) on ivory, active type-vitamin D3 stimulation; type: cell-based, ICR mice; conditions: 10 nM active type-vitamin D3, 4 days
From the text: The balance between bone formation and bone destruction is disturbed during osteoporosis, with bone destruction considered to be accelerated. Bone destruction is believed to occur due to an increase in the activation and number of osteoclasts. Experiments have been conducted wherein bone resorption was induced with active type-vitanium D3 stimulation using mouse bone cells dispersed on ivory for the experimental model. The bone resorption inhibitory action of compounds of the present invention was measured using this model.
After isolating the femur and tibia from 10-15 day old ICR mice, the bone specimens were prepared into thin sections in α-MEM medium containing 5% fetal bovine serum to prepare an bone cells suspension containing marrow cells and bone matrix. Large fragments of bone were removed with nylon mesh. Viable total cells were counted with trypan blue exclusion test while osteoclasts were stained with tartaric acid-resistantacid phosphatase stain to prepare a cell suspension containing osteoclasts in a proportion of roughly 0.05-0.1%. The ivory was cut into thin sections having a thickness of 150 μm using a low-speed rotary diamond cutter. The thin sections were then punched to a size that matched the size of the wells of a 96 well plate. These ivory fragments were placed in a 96 well plate followed by addition of the cell suspension prepared above so that each well contained 500 osteoclasts. 10 nM active type-vitamin D3 was added as stimulant simultaneous to addition of the drugs of the present invention at concentrations of 10 μM and 100 μM. After culturing the cells for 4 days at 37° C. in an environment of 10% CO2, the resorption pits that formed on the ivory slices were stained with hematoxylin and counted by observing microscopically. The resorption pit formation inhibition rate was then calculated using the formula indicated below. [formula]
The results were statistically processed using the Student's t-test, and those results that were significant at a level of significance of P<0.05 with respect to an active type-vatanium D3 stimulation control group were indicated with one asterisk (*), while those results that were significant at a level of significance of P<0.01 were indicated with two asterisks (**).

CSc1ccc(SC(P(=O)(O)O)P(=O)(O)O)cc1 [Example 2, (4-methylthiophenyl)thiomethanediphosphonic acid]
inhibition at 100 µM [1]: 51.4%
resorption pit formation Inhibition Rate with respect to Control Group ([2]; 10 μM compound): 79.9 ± 3.12%
resorption pit formation Inhibition Rate with respect to Control Group ([2]; 100 μM compound): 92.6 ± 1.08%
